Experimental data: patent US11865126B2, “Method for treating anxiety disorders, headache disorders, and eating disorders with psilocybin” (priority 2019, dated 2024)

Legend:
[1] = test system: healthy subjects; assay: Scale of Social Responsibility (SSR); assay type: in vivo, human
Protocol: In some embodiments, the Scale of Social Responsibility (SSR) is utilized to evaluate the safety and/or efficacy of psilocybin. The SSR measures perceptions regarding the importance of ethics and social responsibility.
The following list of outcome measures are non-exhaustive. • a. The short-term change from Baseline (Day −1 [Visit 2]) to Day 7 (Visit 5) in cognitive measures of attention, spatial and working memory and executive function was measured by a composite score of the CANTAB Panel (Spatial Working Memory [SWM], Rapid Visual Information Processing [RVP], Paired Associates Learning [PAL]). • b. The short-term change from Baseline (Day −1 [Visit 2]) to Day 7 (Visit 5) in Social Cognition Panel scales (Pictorial Empathy Test [PET], Reading the Mind in the Eyes Test [RMET], Toronto Empathy Questionnaire [TEQ], Social Value Orientation [SVO], Scale of Social Responsibility [SSR]). • c. The change from Baseline (Day −1 [Visit 2]) to Day 28 (Visit 6) in cognitive measures of attention, spatial and working memory and executive function as measured by a composite score of the CANTAB Panel (SWM, RVP, PAL). • d. The long-term change from Baseline (Day −1 [Visit 2]) to Day 84 (Visit 7) in Social Cognition Panel scales (PET, RMET, TEQ, SVO, SSR). • e. Dose-related differences between cognitive effects of psilocybin at Baseline (Day −1 [Visit 2]), Day 7 (Visit 5) and Day 28 (Visit 6), as measured by a composite score of the CANTAB Panel (SWM, RVP, PAL). • f. Dose-related differences between psychological effects of psilocybin at Baseline (Day −1 [Visit 2]), Day 7 (Visit 5) and Day 84 (Visit 7), as measured by Social Cognition Panel scales (PET, RMET, TEQ, SVO, SSR). • g. Differences in cognitive effects of psilocybin between psilocybin-naïve and experienced subjects at Baseline (Day −1 [Visit 2]), Day 7 (Visit 5) and Day 28 (Visit 6), as measured by a composite score of the CANTAB Panel (SWM, RVP, PAL). • h. Differences in Positive and Negative Affect Schedule (PANAS) after study drug administration on Day 0 (Visit 3). • i. Differences between psilocybin and placebo in the Emotion Recognition Test (ERT), Intra-Extra Dimensional Set Shift (IED), One Touch Stockings (OTS), Verbal Fluency and Digit Span Forward at Day 7 (Visit 5). • j. A composite score of the CANTAB Panel, including the following tests: • i. Spatial Working Memory (SWM) (performed at Visit 2, Visit 5, and Visit 6). • ii. Rapid Visual Information Processing (RVP) (performed at Visit 2, Visit 5, and Visit 6). • iii. Paired Associates Learning (PAL) (performed at Visit 2, Visit 5, and Visit 6). • k. Cognitive Flexibility Panel • i. Emotion Recognition Task (ERT) (performed at Visit 5). • ii. Intra-Extra Dimensional Set Shift (IED) (performed at Visit 5). • iii. One Touch Stockings (OTS) (performed at Visit 5). • iv. Verbal Fluency (performed at Visit 5). • v. Digit Span Forward (performed at Visit 5). • l. Five Dimension Altered States of Consciousness questionnaire (5D-ASC) (performed at Visit 3). • m. PANAS (performed at Visit 2 and Visit 3). • n. NEO-Five Factor Inventory (NEO-FFI) (performed at Visit 2, Visit 5, and Visit 7). • o. Symptom Checklist-90 item (SCL-90) (performed at Visit 2, Visit 5, and Visit 7). • p. Life Changes Inventory (LCI): The LCI measures changes in attitudes and values after near-death experiences often used to evaluate personal transformation following spiritually oriented experiences and practices. (performed at Visit 5 and Visit 7). • q. Social Cognition Panel scales • i. Pictorial Empathy Test (PET) (performed at Visit 2, Visit 5, and Visit 7). • ii. Reading the Mind in the Eyes Test (RMET) (performed at Visit 2, Visit 5, and Visit 7). • iii. Social Value Orientation (SVO) (performed at Visit 2, Visit 5, and Visit 7). • iv. Toronto Empathy Questionnaire (TEQ) (performed at Visit 2, Visit 5, and Visit 7). • v. Scale of Social Responsibility (SSR) (performed at Visit 2, Visit 5, and Visit 7). • r. Sheehan Suicidality Tracking Scale (SSTS) • s. […]

[2] = test system: female Wistar rats; assay: Binge eating model: chow, chocolate and total food intake; conditions: across the whole study

CN(C)CCc1c[nH]c2cccc(OP(=O)(O)O)c12 [psilocybin]
SSR compliance social rules change from baseline, LS mean difference Psilocybin 10 mg - Placebo ([1]; Day 7, MMRM): 0.0 | SSR compliance social rules change from baseline, LS mean difference Psilocybin 25 mg - Placebo ([1]; Day 7, MMRM): 0.1 | SSR compliance social rules change from baseline, LS mean difference Psilocybin 25 mg-10 mg ([1]; Day 7, MMRM): 0.1 | SSR fulfilling expectations change from baseline, LS mean difference Psilocybin 10 mg - Placebo ([1]; Day 7, MMRM): 0.1 | SSR fulfilling expectations change from baseline, LS mean difference Psilocybin 25 mg - Placebo ([1]; Day 7, MMRM): 0.2 | SSR fulfilling expectations change from baseline, LS mean difference Psilocybin 25 mg-10 mg ([1]; Day 7, MMRM): 0.1 | SSR global change from baseline, LS mean difference Psilocybin 10 mg - Placebo ([1]; Day 7, MMRM): 1.2 | SSR global change from baseline, LS mean difference Psilocybin 25 mg - Placebo ([1]; Day 7, MMRM): 2.8 | SSR global change from baseline, LS mean difference Psilocybin 25 mg-10 mg ([1]; Day 7, MMRM): 1.6 | SSR compliance social rules change from baseline, LS mean difference Psilocybin 10 mg - Placebo ([1]; Day 84, MMRM): −0.0 | SSR compliance social rules change from baseline, LS mean difference Psilocybin 25 mg - Placebo ([1]; Day 84, MMRM): 0.1 | SSR compliance social rules change from baseline, LS mean difference Psilocybin 25 mg-10 mg ([1]; Day 84, MMRM): 0.1 | SSR fulfilling expectations change from baseline, LS mean difference Psilocybin 10 mg - Placebo ([1]; Day 84, MMRM): −0.1 | SSR fulfilling expectations change from baseline, LS mean difference Psilocybin 25 mg - Placebo ([1]; Day 84, MMRM): 0.0 | SSR fulfilling expectations change from baseline, LS mean difference Psilocybin 25 mg-10 mg ([1]; Day 84, MMRM): 0.2 | SSR global change from baseline, LS mean difference Psilocybin 10 mg - Placebo ([1]; Day 84, MMRM): 0.3 | SSR global change from baseline, LS mean difference Psilocybin 25 mg - Placebo ([1]; Day 84, MMRM): 2.2 | SSR global change from baseline, LS mean difference Psilocybin 25 mg-10 mg ([1]; Day 84, MMRM): 1.8 | SSR fulfilling expectations change from baseline, LS mean ([1]; Psilocybin 10 mg, Day 7, MMRM): −0.1 | SSR fulfilling expectations change from baseline, LS mean ([1]; Psilocybin 10 mg, Day 84, MMRM): 0.2 | SSR fulfilling expectations change from baseline, LS mean ([1]; Psilocybin 25 mg, Day 7, MMRM): −0.0 | SSR fulfilling expectations change from baseline, LS mean ([1]; Psilocybin 25 mg, Day 84, MMRM): −0.0 | Food intake over the 24 hour period (normal feeding behaviour) [2]: not significantly altered
